Source: US20240316207A1, “SHP2 INHIBITOR, PHARMACEUTICAL COMPOSITION COMPRISING SAME AND APPLICATION THEREOF” (BEIJING TIDE PHARMACEUTICAQL CO., LTD., priority 2021, published 2024)

Each compound was assayed against T1, SHP2 (Homo sapiens, UniProt Q06124) (assay: SHP2 degradation in MV411 cells (Western blot, SHP-2 antibody)). Conditions: MV 411 cells, 24 hours with compound, SHP2 protein level by Western blot.
T1 construct: endogenous in cells; host or cells: MV411 (MV4-11) leukemia cells
T1 sequence (Q06124 1-593): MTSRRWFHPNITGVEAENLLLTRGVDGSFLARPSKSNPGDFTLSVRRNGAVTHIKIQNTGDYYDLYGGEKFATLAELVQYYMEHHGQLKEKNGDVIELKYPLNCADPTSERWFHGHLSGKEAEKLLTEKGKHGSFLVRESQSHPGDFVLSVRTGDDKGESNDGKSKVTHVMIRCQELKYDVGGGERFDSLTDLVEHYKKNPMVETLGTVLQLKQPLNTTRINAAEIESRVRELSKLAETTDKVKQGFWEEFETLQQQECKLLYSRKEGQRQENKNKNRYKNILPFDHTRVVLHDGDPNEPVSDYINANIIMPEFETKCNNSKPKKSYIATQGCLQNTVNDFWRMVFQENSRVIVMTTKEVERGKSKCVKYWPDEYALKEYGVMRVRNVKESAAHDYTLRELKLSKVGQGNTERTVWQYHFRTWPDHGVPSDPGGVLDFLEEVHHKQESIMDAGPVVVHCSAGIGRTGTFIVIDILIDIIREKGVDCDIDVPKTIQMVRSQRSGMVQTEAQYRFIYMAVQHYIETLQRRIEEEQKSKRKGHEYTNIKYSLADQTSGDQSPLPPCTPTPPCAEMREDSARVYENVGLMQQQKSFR
Type: cell-based
From the text: Reagent: complete DMEM medium, Gibco products. Fetal bovine serum, manufactured by ThermoFisher. Trypsin, manufactured by ThermoFisher. The SHP-2 antibody is produced by CST.
Cell line, MV 411, the blast cells of patients with bi-phenotypic B-myelomonocytic leukemia, was established by Rovera.
Measuring method: took the cells growing in the logarithmic phase, collected and suspended the cells in DMEM containing 10% fetal calf serum, gently blowed and beated the cells into single cell suspension by using a pipette, and counted the living cells under a microscope. […] Then cultured for 24 hours. All cells were collected and washed with PBS, lysed with RIPA lysate and collected into a 1.7 ml tube. […] metal bath for 5 minutes to fully denature the protein. 100V constant voltage electrophoresis after Western condensation and loading, stopped when bromophenol blue band reached the end point. The cellulose acetate membrane is transferred by a wet method, 45 minutes at a constant flow of 300-500 mA, 5% BSA is used for blocking for 1-2 hours at room temperature. Primary antibody of 1:500-1:8000 were used for incubation at 25° C. for 40 minutes and then washed three times. Secondary antibody was used for incubation for 15-40 min at room temperature. The proteins were detected using ultrasensitive ECL luminophores such as Enlight, using an X-Ray film automatic developing machine. See the statistical tables below, and FIGS. 1 and 2 for test results.
Effective Concentration of the Compound of the Invention in the Cell Line for Inhibiting SHP2

Row | Compound | DC50 [nM]
1 | CCOc1cc(O)c(C(=O)/C=C/c2ccc(NCCOCCOCCOCCNc3cccc4c3C(=O)N(C3CCC(=O)NC3=O)C4=O)cc2Cl)cc1CN1CCC[C@H]1C(N)=O (stereo partly shown) [TDC.2001] | 128
2 | CCOc1cc(O)c(C(=O)/C=C/c2ccc(NCCOCCOCCNc3cccc4c3C(=O)N(C3CCC(=O)NC3=O)C4=O)cc2Cl)cc1CN1CCNCC1 (stereo not shown) [TDC.2002] | 336
3 | CCOc1cc(O)c(C/C=C/c2ccc(N3CCN(C(=O)CCCCCCC(=O)Nc4cccc5c4C(=O)N(C4CCC(=O)NC4=O)C5=O)CC3)cc2Cl)cc1CN1CCC=C(n2c(=O)[nH]c3ccccc32)C1 (stereo not shown) [TDC.2003] | 52
4 | CCOc1cc(O)c(C/C=C/c2ccc(N3CCN(C(=O)CCCCCC(=O)Nc4cccc5c4C(=O)N(C4CCC(=O)NC4=O)C5=O)CC3)cc2Cl)cc1CN1CCCC(n2c(=O)[nH]c3ccccc32)C1 (stereo not shown) [TDC.2004] | 120
5 | CCOc1cc(O)c(C(=O)/C=C/c2ccc(NCCOCCOCCNc3cccc4c3C(=O)N(C3CCC(=O)NC3=O)C4=O)cc2Cl)cc1CN1CCN(C)CC1 (stereo not shown) [TDC.2005] | 321
6 | CCOc1cc(O)c(C(=O)/C=C/c2ccc(NCCOCCOCCNc3cccc4c3C(=O)N(C3CCC(=O)NC3=O)C4=O)cc2Cl)cc1CN1CCOCC1 (stereo not shown) [TDC.2006] | 445
7 | CCOc1cc(O)c(C(=O)/C=C/c2ccc(NCCOCCOCCNc3cccc4c3C(=O)N(C3CCC(=O)NC3=O)C4=O)cc2Cl)cc1CN1CCC[C@H]1CO (stereo partly shown) [TDC.2007] | 125
8 | CCOc1cc(O)c(C(=O)/C=C/c2ccc(NCCOCCOCCNc3cccc4c3C(=O)N(C3CCC(=O)NC3=O)C4=O)cc2Cl)cc1CN1CCC[C@H]1COC (stereo partly shown) [TDC.2008] | 215

Results, then the compound that gave them:

Row | DC50 [nM] | Compound
9 | 16 | CCOc1cc(O)c(C(=O)/C=C/c2ccc(N3CCN(CCOCCOCCOc4cccc5c4C(=O)N(C4CCC(=O)NC4=O)C5=O)CC3)cc2Cl)cc1CN1CCCC(n2c(=O)[nH]c3ccccc32)C1 (stereo not shown) [TDC.2009]
10 | 81 | CCOc1cc(O)c(C(=O)/C=C/c2ccc(N3CCN(CCOCCOCCOc4cccc5c4C(=O)N(C4CCC(=O)NC4=O)C5=O)CC3)cc2Cl)cc1CN1CCC=C(n2c(=O)[nH]c3ccccc32)C1 (stereo not shown) [TDC.2010]
11 | 138 | CCOc1cc(O)c(C(=O)/C=C/c2ccc(N3CCN(CCOCCOCCOc4cccc5c4C(=O)N(C4CCC(=O)NC4=O)C5=O)CC3)cc2Cl)cc1CN1CCC[C@H]1C(N)=O (stereo partly shown) [TDC.2011]
12 | 10 | CCOc1cc(O)c(C(=O)/C=C/c2ccc(N3CCN(CCOCCOCCOc4cccc5c4C(=O)N(C4CCC(=O)NC4=O)C5=O)CC3)cc2Cl)cc1CN1CCC[C@@H]1CO (stereo partly shown) [TDC.2012]
13 | 203 | C=C/C(OCCOCCOCCN1CCN(c2ccc(/C=C/C(=O)c3cc(CN4CCC[C@H]4COC)c(OCC)cc3O)c(Cl)c2)CC1)=C1\C(=C)C(=O)N(C2CCC(=O)NC2=O)C1=O (stereo partly shown) [TDC.2013]
14 | 102 | CCOc1cc(O)c(C(=O)/C=C/c2ccc(N3CCN(CCOCCOCCOCCNc4cccc5c4C(=O)N(C4CCC(=O)NC4=O)C5=O)CC3)cc2Cl)cc1CN1CCCC(n2c(=O)[nH]c3ccccc32)C1 (stereo not shown) [TDC.2014]
15 | 97 | CCOc1cc(O)c(C(=O)/C=C/c2ccc(NCCOCCOCCCOCCNc3cccc4c3C(=O)N(C3CCC(=O)NC3=O)C4=O)cc2Cl)cc1CN1CCC=C(n2c(=O)[nH]c3ccccc32)C1 (stereo not shown) [TDC.2015]
16 | 356 | CCOc1cc(O)c(C(=O)/C=C/c2ccc(NCCOCCOCCNc3cccc4c3C(=O)N(C3CCC(=O)N(C(C)OC(=O)CC)C3=O)C4=O)cc2Cl)cc1CN1CCN(C)CC1 (stereo not shown) [TDC.2016]
17 | 183 | CCOc1cc(O)c(C(=O)/C=C/c2ccc(NCCOCCOCCOc3cccc4c3C(=O)N(C3CCC(=O)NC3=O)C4=O)cc2Cl)cc1CN1CCC[C@H]1COC (stereo partly shown) [TDC.2017]
18 | 142 | CCOc1cc(O)c(C(=O)/C=C/c2ccc(NCCOCCOCCOCCOc3cccc4c3C(=O)N(C3CCC(=O)NC3=O)C4=O)cc2Cl)cc1CN1CCC[C@H]1C(N)=O (stereo partly shown) [TDC.2018]
19 | 13 | CCOc1cc(O)c(C(=O)/C=C/c2ccc(N3CCN(CCOCCOCCOc4cccc5c4C(=O)N(C4CCC(=O)N(COC(=O)C(C)(C)C)C4=O)C5=O)CC3)cc2Cl)cc1CN1CCCC(n2c(=O)[nH]c3ccccc32)C1 (stereo not shown) [TDC. 2020]
